For this test, the system named is BALB/c diabetic female mice with C57BI/6 islet allograft. In words: cellular therapy with in vitro TEST COMPOUND-treated BM-DC in islet allograft transplantation. To be noted: injected i.v. one day before transplantation. Format: in vivo. As to the method:
To further investigate the effect of TEST COMPOUND on murine DCs bone marrow cells from BALB/c mice are differentiated with GM-CSF into bone marrow derived DCs (BM-DCs) in the presence or absence of TEST COMPOUND (20 nM). BM-DC are left immature or activated with LPS.
BM-DC are injected (3×105, i.v.) into BALB/c diabetic female mice one day before C57BI/6 islet allograft transplantation. Graft survival is monitored by weekly measurement of blood glucose level (*two-tailed t test).

For `FC(F)(F)c1ccc(Nc2nccc(-c3cccc(Cl)c3)n2)cc1` [Compound B, N-[4-(3-Chloro-phenyl)-pyrimidin-2-yl]-N-(4-trifluoromethyl-phenyl)-amine], the “islets allograft acceptance after injection of LPS-activated (mature) treated recipient type BM-DC” value is “significantly prevents islet graft rejection”.
